Laboratory results from article PMC6661812, “Synthesis, biological activity and molecular docking of new tricyclic series as α-glucosidase inhibitors” (BMC Chemistry, 2019).

Legend:
[1] = biological target: α-glucosidase enzyme type 1 from Baker’s yeast (Saccharomyces cerevisiae, UniProt P53341); experiment: α-Glucosidase inhibitory assay (p-NPG substrate, absorbance at 405 nm); type: biochemical; details: for inhibition at 100 µg/mL: 100 µg/mL of each compound, test repeated three times, read-out: average percent inhibition of α-glucosidase; for IC50: mean of three experiments ± SEM, more than five concentrations
α-glucosidase enzyme type 1 from Baker’s yeast, sequence (P53341 whole entry): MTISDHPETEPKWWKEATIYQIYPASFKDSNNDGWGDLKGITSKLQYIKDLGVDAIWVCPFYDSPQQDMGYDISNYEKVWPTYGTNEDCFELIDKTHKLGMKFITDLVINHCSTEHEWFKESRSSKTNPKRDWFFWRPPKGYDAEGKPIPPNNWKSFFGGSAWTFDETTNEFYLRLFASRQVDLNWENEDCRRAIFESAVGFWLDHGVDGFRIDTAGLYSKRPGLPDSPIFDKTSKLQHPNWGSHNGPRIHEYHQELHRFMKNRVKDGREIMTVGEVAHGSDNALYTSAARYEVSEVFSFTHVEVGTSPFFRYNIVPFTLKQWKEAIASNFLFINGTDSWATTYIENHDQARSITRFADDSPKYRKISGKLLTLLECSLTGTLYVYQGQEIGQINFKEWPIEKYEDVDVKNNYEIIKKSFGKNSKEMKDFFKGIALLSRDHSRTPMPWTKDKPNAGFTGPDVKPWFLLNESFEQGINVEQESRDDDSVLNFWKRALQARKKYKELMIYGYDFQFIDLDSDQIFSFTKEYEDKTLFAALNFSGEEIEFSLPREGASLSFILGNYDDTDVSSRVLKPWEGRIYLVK
Protocol: Phosphate-buffered saline pH 6.5 was prepared at 20 °C by dissolving sodium phosphate monobasic (1.4 g), sodium chloride (8 g), potassium chloride (0.2 g) and potassium dihydrogen phosphate (0.2 g) in deionized water (1 L). The solution was adjusted to pH 6.5 at 20 °C with 1 M sodium hydroxide (NaOH) or hydrochloric acid (HCl). A 20-mM solution of para-nitrophenyl-α-D-glucopyranoside (p-NPG substrate) was prepared by dissolving […] of p-NPG in 10 mL of buffer solution. The α-glucosidase enzyme solution was prepared by dissolving α-glucosidase enzyme type 1 from Baker’s yeast (1 mg) in cold phosphate-buffered saline (1000 µL), pH 6.5; 50 µL of this solution was mixed into 12 mL of cold phosphate-buffered saline to give a concentration of 0.125 unit/mL. For the screening of samples, 200 µg/mL concentration was prepared in 100% dimethyl sulfoxide (DMSO). Then, two-fold serial dilutions with 5% DMSO were prepared in a 96-well microplate to give final concentrations of 100, 50, 25, 12.5, 6.25, 3.13 and 1.56 µg/mL. […]
A volume of 10 µL of 5% DMSO was added to the 96 wells of the microplate. Then, 10 µL of the stock sample was added to the first well and mixed. Subsequently, 10 µL of the sample from the first well was taken and added to the second well and this procedure was repeated for the two-fold serial dilutions. Next, 20 µL of the α-glucosidase enzyme, 40 µL of phosphate buffered saline at pH 6.5 and 20 µL of deionized water were added to each well in the 96-well microtiter plate and mixed. The mixture was pre-incubated at 37 °C for 10 min. Then, 10 µL of 20 mM p-NPG solution was added to the mixture and the absorbance at 0 min. was measured at 405 nm. The reaction was incubated for 30 min. at 37 °C and the absorbance was then measured. […] Experiments were performed in triplicate. The inhibition activity of α-glucosidase was determined based on the described method by Ahmad et al.. The percent inhibition (%) of α-glucosidase inhibitory activity was calculated using the equation: %inhibition=A30min-A0mincontrol-A30min-A0minexp/A30min-A0mincontrol×100\%
IC50 values are the mean values of three experiments represented as SEM (n = 3). […] Statistical analysis using one-way ANOVA was applied to the results. Nonlinear regression analysis using a four-parameter logistic curve was performed to calculate the IC50 values. The statistical software used were Microsoft Excel 2010 and Sigma Plot (version 14.0 Notebook, Systat Software Inc.).

Row | melting point | SMILES | inhibition at 100 µg/mL [1] | IC50 [1]
1 | 252 to 254 °C | O=c1[nH]c2nc(Oc3ccccc3)nn2c2ncccc12 [Compound 1, 2-phenoxypyrido[3,2-e][1,2,4]triazolo[1,5-a]pyrimidin-5(4H)-one] |  | 
2 | 170 to 172 °C | C=CCn1c(=O)c2cccnc2n2nc(Oc3ccccc3)nc12 [Compound 2b, 4-Allyl-2-phenoxypyrido[3,2-e][1,2,4]triazolo[1,5-a]pyrimidin-5(4H)-one] |  | 
3 | 195 to 197 °C | O=c1c2cccnc2n2nc(Oc3ccccc3)nc2n1Cc1ccccc1 [Compound 2c, 4-Benzyl-2-phenoxypyrido[3,2-e][1,2,4]triazolo[1,5-a]pyrimidin-5(4H)-one] |  | 
4 | 181 to 183 °C | Cc1cccc(Cn2c(=O)c3cccnc3n3nc(Oc4ccccc4)nc23)c1 [Compound 2e, 4-(3-Methylbenzyl)-2-phenoxypyrido[3,2-e][1,2,4]triazolo[1,5-a]pyrimidin-5(4H)-one] |  | 
5 | 189 to 191 °C | COc1cccc(Cn2c(=O)c3cccnc3n3nc(Oc4ccccc4)nc23)c1 [Compound 2f, 4-(3-Methoxybenzyl)-2-phenoxypyrido[3,2-e][1,2,4]triazolo[1,5-a]pyrimidin-5(4H)-one] |  | 
6 | 150 to 152 °C | O=c1c2cccnc2n2nc(Oc3ccccc3)nc2n1Cc1ccc([N+](=O)[O-])cc1 [Compound 2h, 4-(4-Nitrobenzyl)-2-phenoxypyrido[3,2-e][1,2,4]triazolo[1,5-a]pyrimidin-5(4H)-one] |  | 
7 | 144 to 146 °C | O=c1c2cccnc2n2nc(Oc3ccccc3)nc2n1Cc1ccc(Cl)cc1 [Compound 2i, 4-(4-Chlorobenzyl)-2-phenoxypyrido[3,2-e][1,2,4]triazolo[1,5-a]pyrimidin-5(4H)-one] |  | 
8 | 169 to 171 °C | O=c1c2cccnc2n2nc(Oc3ccccc3)nc2n1CCN1CCOCC1 [Compound 2j, 4-(2-Morpholinoethyl)-2-phenoxypyrido[3,2-e][1,2,4]triazolo[1,5-a]pyrimidin-5(4H)-one] |  | 
9 | 200 to 202 °C | O=c1c2cccnc2n2nc(Oc3ccccc3)nc2n1CCN1CCCCC1 [Compound 2k, 2-Phenoxy-4-(2-(piperidin-1-yl)ethyl)pyrido[3,2-e][1,2,4]triazolo[1,5-a]pyrimidin-5(4H)-one] |  | 
10 | 149 to 151 °C | COc1cccc(CSc2nc3nc(Oc4ccccc4)nn3c3ncccc23)c1 [Compound 4, 5-((3-methoxybenzyl)thio)-2-phenoxypyrido[3,2-e][1,2,4]triazolo[1,5-a]pyrimidine] |  | 
11 | 190 to 192 °C | Clc1nc2nc(Oc3ccccc3)nn2c2ncccc12 [Compound 5, 5-chloro-2-phenoxypyrido[3,2-e][1,2,4]triazolo[1,5-a]pyrimidine] |  | 
12 | 249 to 251 °C | ONc1nc2nc(Oc3ccccc3)nn2c2ncccc12 [Compound 6e, N-(2-phenoxypyrido[3,2-e][1,2,4]triazolo[1,5-a]pyrimidin-5-yl)hydroxylamine] |  | 
13 | 241 to 243 °C | NNc1nc2nc(Oc3ccccc3)nn2c2ncccc12 [Compound 6f, 5-hydrazinyl-2-phenoxypyrido[3,2-e][1,2,4]triazolo[1,5-a]pyrimidine] |  | 
14 | 220 to 222 °C | COc1ccc(O)c(/C=N/Nc2nc3nc(Oc4ccccc4)nn3c3ncccc23)c1 [Compound 6g, (E)-4-Methoxy-2-((2-(2-phenoxypyrido[3,2-e][1,2,4]triazolo[1,5-a]pyrimidin-5-yl)hydrazono)methyl)phenol] |  | 
15 | 163 to 165 °C | O=C(NNc1nc2nc(Oc3ccccc3)nn2c2ncccc12)c1ccncc1 [Compound 6i, N’-(2-phenoxypyrido[3,2-e][1,2,4]triazolo[1,5-a]pyrimidin-5-yl)isonicotinohydrazide] |  | 

Row | SMILES | melting point | inhibition at 100 µg/mL [1] | IC50 [1]
16 | CCn1c(=O)c2cccnc2n2nc(Oc3ccccc3)nc12 [Compound 2a, 4-Ethyl-2-phenoxypyrido[3,2-e][1,2,4]triazolo[1,5-a]pyrimidin-5(4H)-one] | 173 to 175 °C | > 50% | 304 µM
17 | Cc1ccccc1Cn1c(=O)c2cccnc2n2nc(Oc3ccccc3)nc12 [Compound 2d, 4-(2-Methylbenzyl)-2-phenoxypyrido[3,2-e][1,2,4]triazolo[1,5-a]pyrimidin-5(4H)-one] | 160 to 162 °C | > 50% | 174 µM
18 | S=c1[nH]c2nc(Oc3ccccc3)nn2c2ncccc12 [Compound 3, 2-phenoxypyrido[3,2-e][1,2,4]triazolo[1,5-a]pyrimidine-5(4H)-thione] | 270 to 272 °C | > 60% | 168 µM
19 | c1ccc(Nc2nc3nc(Oc4ccccc4)nn3c3ncccc23)cc1 [Compound 6a, 2-Phenoxy-N-phenylpyrido[3,2-e][1,2,4]triazolo[1,5-a]pyrimidin-5-amine] | 251 to 253 °C | > 50% | 154 µM
20 | Cc1ccc(Nc2nc3nc(Oc4ccccc4)nn3c3ncccc23)cc1 [Compound 6b, 2-Phenoxy-N-(p-tolyl)pyrido[3,2-e][1,2,4]triazolo[1,5-a]pyrimidin-5-amine] | 162 to 164 °C | > 50% | 207 µM
21 | COc1ccc(Nc2nc3nc(Oc4ccccc4)nn3c3ncccc23)cc1 [Compound 6c, N-(4-Methoxyphenyl)-2-phenoxypyrido[3,2-e][1,2,4]triazolo[1,5-a]pyrimidin-5-amine] | 174 to 176 °C | > 60% | 177 µM
22 | CCOc1ccc(Nc2nc3nc(Oc4ccccc4)nn3c3ncccc23)cc1 [Compound 6d, N-(4-Ethoxyphenyl)-2-phenoxypyrido[3,2-e][1,2,4]triazolo[1,5-a]pyrimidin-5-amine] | 154 to 156 °C | > 60% | 139 µM
23 | COc1ccccc1/C=N/Nc1nc2nc(Oc3ccccc3)nn2c2ncccc12 [Compound 6h, (E)-5-(2-(2-Methoxybenzylidene)hydrazinyl)-2-phenoxypyrido[3,2-e][1,2,4]triazolo[1,5-a]pyrimidine] | 111 to 113 °C | > 50% | 104 µM
